From patent US9387212B2, “Methods for treating Parkinson's disease” (UCB Pharma S.A., priority 2012, dated 2016)

How the values were obtained:
PD patients = conditions: Mizuno et al. 2010; Nutt et al., 2008; cited from earlier work
[1] = system: unilateral 6-OHDA-lesioned rats; test: Video-based behavioural profile analysis (Ethovision) in drug-naive hemi-parkinsonian rats; format: in vivo, rat; conditions: % of the veh-treated rats; for Distance (quantity of movement): Radiprodil 3 mg/kg po, Tozadenant 30 mg/kg po, LD25 ip, LD/BZ 16/4 mg/kg ip; for Adequate body position / Adequate trajectory (gyration radius) / Contra turns (ability to shift direction) / Ipis turns (ability to shift direction): same doses
Description: (§1) The specific behavioural profile of unilateral 6-OHDA-lesioned rats was recorded via 8 cameras connected to a video acquisition system. Rats under treatment were placed freely in a small environment (rotometers, 25×22 cm) or in large open-field (50×40 cm) and the behaviour was video-recorded for 55 minutes (total of 3300 sec). The placement in the small (rotometers) or large (open-field) environment may depend on the test. The rats were filmed from below as described in the section which concerns the rotational activity.
(§2) After the in-live data recordings, the videos are subsequently analyzed by the Ethovision program from (Noldus, version 9.0). The animal and its movements and displacements were defined according to three points (nose, center and tail). The movements, position of the body and, the space occupation, were set-up according to the filter analysis defined with specific criteria and thresholds in the program. Various behavioural parameters were analyzed and only the relevant, i.e. the non-correlated ones, were kept for the final behavioural description.
(§3) The analysis of the other types of behaviours was done with specific parameters selected in the video analysis program (Ethovision 9.0) in order to describe as best as possible the behaviour observed visually and being able to quantify it. The parameters “Distance”, “Counter Clockwise rotations”, “Clockwise rotations”, “Streched” were extracted from the analysis. Additional parameter, the “gyration radius” is calculated from the raw data obtained by the system. • Distance (=“distance”): the total distance moved by the animal (cm) • Counter clockwise (=“ipsilateral turns”): count of the number of 360° turns of ipsilateral rotations in the same sense than that of the lesion. • Clockwise (=“contralateral turns”): count of the number of 360° turns of contralateral rotations in the opposite sense to that of the lesion. • Stretched: (=“adequate body position”): time spent in a position wherein the rat stands on its four paws without any bent position of the trunk. In the program this is the parameter “body elongation” that is used to discriminate the intensity and frequency of the adequate body position. The threshold is fixed at 70%. • Gyration Radius (=“adequate trajectory”): for a specific time interval, average distance between the animal position and its average position within this specific time interval. This parameter reflect the ability of the rats to use the entire space of the arena and is measured in centimeters. Statistical Analysis
Specific behavioural analysis: The five behaviours kept for the thorough behavioural analysis (i.e. distance, contra turns, ipsi turns, adequate body position and adequate trajectory) were analyzed with parametric statistic however if variance homogeneity was not respected for the data (Bartlett's test for equal variances) these latter were analyzed with non-parametric statistics (Kruskal-Wallis). In both case, one-way ANOVA was performed to discriminate the effect of the various treatments on each independent behaviours. Significant differences between means were determined by Tukey post hoc test or Dunn's Multiple Comparison test with p<0.05.
The effects of the oral co-administration of Radiprodil (3 mg/kg, po) with Tozadenant (30 mg/kg, po) on the rat behaviour are compared to the testing of: • 1) these compounds separately • 2) a partially active dose of L-Dopa (25 mg/kg, ip) • 3) a fully active dose of L-Dopa/benserazide (16/4 mg/kg, ip).
The behavioural profile was analyzed in detail with an automated behavioural analysis system based on video recordings (see methods section for the description). In addition, classical measurements (rotometers and actometers) of the behaviour are also used to assess quantity of movements. […]

[2] = system: unilateral 6-OHDA-lesioned rat model of Parkinson's disease; test: General activity (distance travelled, rearing counts) in actometers; format: in vivo; conditions: Radiprodil 3 mg/kg po, Tozadenant 30 mg/kg po; three-way mixed ANOVA, Tukey p<0.05
Description: Subjects: Males Sprague-Dawley rats (Janvier, France), weighing 250-275 g at the time of surgery and 400-450 g at the time of drug testing are used.
On the day of surgery, one week after arrival, rats received unilateral 6-OHDA injection into the right medial forebrain bundle. Each rat was administered with Imipramine HCl (Sigma) 15 minutes before surgery to protect norepinephrinergic (NE) neurons. Rats were anesthetized with Ketamine (Ceva, 75 mg/kg) and Xylazine (Bayer, 10 mg/kg) and placed in stereotaxic frame (David Kopf Instrument). […] Each rat was monitored and handled regularly for 3 weeks to ensure full recovery and acclimation to the experimenters and environment. […]
General activity was recorded within large open-field measuring horizontal and vertical movements and connected to PCs. […] Locomotion was detected and measured by 16 infrared light-beam sensors located on each side of the enclosure at heights of 3 cm. […] Activity counts were recorded by a personal computer. […]
The level of general activity (distance and rearing) measurement in actometers was assessed by three-way mixed ANOVA with the A2A antagonist (2 levels) and the NR2B antagonist (2 levels) as between-group factors and the time as within-subjects factor (6 or 24 levels). […]

[3] = system: hemi-parkinsonian L-Dopa-primed rats; test: Behavioural profile analysis in L-Dopa-primed, fully dyskinetic hemi-parkinsonian rats; format: in vivo, rat; conditions: Radiprodil 3 mg/kg, Tozadenant 30 mg/kg
Description: as §1, §2
The analysis of the Abnormal Involuntary movement (“AIMs”) was performed with a specific parameter defined in Ethovision 9.0. The parameter “body elongation” was used to discriminate both the intensity and the frequency of dyskinetic (i.e. dystonic) position of the rat.
as §3
Consecutively to that chronic L-Dopa/benzerazide treatment, they show a very high level of contralateral rotations and AIMs at the end of this chronic treatment when tested in the open-field. […] This absence of cross-sensitization on the level of contralateral rotations and AIMs result was entirely unexpected.

Row | Compound | efficacy in clinical trials in PD patients (PD patients) | Distance (quantity of movement) ([1]; 0-20′) | Adequate body position ([1]; 0-20′) | Adequate trajectory (gyration radius) ([1]; 0-20′) | Contra turns (ability to shift direction) ([1]; 0-20′) | Ipis turns (ability to shift direction) ([1]; 0-20′) | Distance (quantity of movement) ([1]; 30-50′) | Adequate body position ([1]; 30-50′) | Adequate trajectory (gyration radius) ([1]; 30-50′) | Contra turns (ability to shift direction) ([1]; 30-50′) | Ipis turns (ability to shift direction) ([1]; 30-50′) | distance (FIG. 1, right graph) [2] | Adequate body position, in comparison to the same rats under L-Dopa/benserazide ([3]; arrow gives direction vs LD/BZ) [% ↑] | Contra turns, in comparison to the same rats under L-Dopa/benserazide ([3]; arrow gives direction vs LD/BZ) [% ↓] | No AIMs, in comparison to the same rats under L-Dopa/benserazide ([3]; arrow gives direction vs LD/BZ) [% ↑] | Severe AIMs, in comparison to the same rats under L-Dopa/benserazide ([3]; arrow gives direction vs LD/BZ) [% ↓] | Distance, in comparison to the same rats under L-Dopa/benserazide ([3]; arrow in cell: increase, decrease or no change vs LD/BZ) [% ↓]
1 | CCn1c(=O)c2c(nc(/C=C/c3ccc(OC)c(OC)c3)n2C)n(CC)c1=O [KW-6002] | did not show the expected efficacy |  |  |  |  |  |  |  |  |  |  |  |  |  |  |  | 
2 | N[C@@H](Cc1ccc(O)c(O)c1)C(=O)O [LD25, L-dihydroxyphenylalanine] |  | ++ (300-500%) | + (200-300%) | +++ (>500%) | +++ (>500%) | ++ (300-500%) | +++ (>500%) | ++ (300-500%) | +++ (>500%) | +++ (>500%) | ++ (300-500%) |  |  |  |  |  | 
3 | C[C@@H]([C@@H](O)c1ccc(O)cc1)N1CCC(O)(c2ccccc2)CC1 [Traxoprodil] | did not show the expected efficacy |  |  |  |  |  |  |  |  |  |  |  |  |  |  |  | 
4 | COc1ccc(N2CCOCC2)c2sc(NC(=O)N3CCC(C)(O)CC3)nc12 [Tozadenant, 4-hydroxy-4-methyl-piperidine-1-carboxylic acid (4-methoxy-7-morpholin-4-yl-benzothiazol-2-yl)-amide] |  | + (200-300%) | + (200-300%) | +++ (>500%) | + (200-300%) | + (200-300%) | ++ (300-500%) | ++ (300-500%) | +++ (>500%) | ++ (300-500%) | ++ (300-500%) | Significant effect | 4151 | 11 | 948 | 12 | 56
